Experimental data published in patent publication US12391672B2, “Solid forms comprising (S)-4-(4-(4-(((2-(2,6-dioxopiperidin-3-yl)-1-oxoisoindolin-4-yl)oxy)methyl)benzyl)piperazin-1-yl)-3-fluorobenzonitrile and salts thereof, and compositions comprising and methods of using the same” (Celgene Corporation, priority 2019, dated 2025).

Legend:
Type in all cases: physicochemical
[1] = Competitive slurry and slurry stability experiments
Description: Form B was obtained at room temperature while form C was obtained at 45° C. in acetone alone.
(§1) The HBr salt was largely insoluble in various buffers when 1 mg/mL slurries were prepared and the mother liquor concentration determined (by HPLC): <0.05 mg/mL in all buffers tested.

[2] = Solid state stability under accelerated storage conditions; details: 40° C./75% RH, 80° C. and ambient light/temperature for 1 week
Description: Form A was not isolated directly as a wet cake but formed only upon drying of Form E in polymorphism studies. […] Small quantities of Form A were generated by dissolving a crude Compound 1 in MEK at high temperature, followed by fast cooling to room temperature, filtration and drying. DSC and TGA data were obtained for samples of Form A and following storage for 1 week at 60° C. and 60° C./75% RH. […] TGA analysis confirmed that this broad endotherm was most likely due to moisture uptake under the accelerated storage conditions. Most of the weight loss of 0.82% in this sample occurred in a single step at less than 75° C. By contrast, weigh loss was a two-step process at the initial time point. […] The residual solvent initially present in the sample was lost upon storage of the sample at 60° C. (0.13% weight loss between 25 to 150° C.).
Form B could be obtained from a process involving methyl acetate. […] HPLC traces were taken of the samples of Form B and following storage for 2 week at 60° C. and 60° C./75% RH. […] Several small degradation products were seen to grow especially in the sample stored at 60° C. Chiral instability was also observed in the sample stored at 60° C./75% RH.
Physical stability: Visually, all samples of Form K were white colored powder with no apparent change in color in the samples stored under accelerated conditions (40° C., 40° C./75% RH, 60° C., 60° C./75% RH and sample stored in light chamber in clear vials exposed to light and covered in aluminum foil) for 14 d relative to the sample stored refrigerated and under ambient conditions.
Solid state chemical stability: HPLC analysis were performed on Form K samples stored under the accelerated stability conditions. […] Based on the HPLC analysis data, there is a measurable but small change in the chemical stability of Form K under the accelerated conditions of temperature, humidity and exposure to light over the 14 d period.
Solid state chiral stability: Chiral stability of Form K samples stored under accelerated stability conditions was tested. There was ˜2.9% of the R-enantiomer (97.1 area % of the active S-isomer) in the initial sample. […]
The chiral purity (area % of S-isomer) remained […] under the accelerated stability conditions.

[3] = Solubility of polymorphic forms in physiologically relevant media and final pH
Description: Solubility data of the several polymorphic forms of Compound 1 in physiologically relevant media and the final pH of these solutions are summarized in the following tables.

[4] = HBr salt solubility in buffers (1 mg/mL slurries, mother liquor by HPLC); details: all buffers tested
Description: as §1

[5] = Dynamic vapor sorption / hygroscopicity
Description: Projekt Messtechnik (now ProUmid) SPS11-100n. The sample was placed on an aluminum holder on top of a microbalance and allowed to equilibrate at 50% r.h. before starting one of the following pre-defined humidity programs (1 cycle): • hold 2 h at 50% r.h., • decrease humidity −5% r.h. h^−1 for 10 h (i.e., from 50% r.h. to 0% r.h.), • hold 5 h at […]., • increase humidity +5% r.h. h^−1 for 19 h (i.e., from 0% r.h. to 95% r.h.), • hold 5 h at 95% r.h., • decrease humidity −5% r.h. h^−1 for 9 h (i.e., from 95% r.h. to 50% r.h.), • hold 2 h at 50% r.h. or • hold 2 h at 50% r.h., • increase humidity +5% r.h. h^−1 for 9 h (i.e., from 50% r.h. to 95% r.h.), • hold 5 h at 95% r.h., • decrease humidity −5% r.h. h^−1 for 19 h (i.e., from 95% r.h. to 0% r.h.), • hold 5 h at 0% r.h., • increase humidity +5% r.h. h^−1 for 10 h (i.e., from 0% r.h. to 50% r.h.), • hold 2 h at 50% r.h.
The hygroscopicity was classified based on the mass gain at 85% r.h. relative to the initial mass as follows: deliquescent (sufficient water adsorbed to form a liquid), very hygroscopic (mass increase of […]), hygroscopic (mass increase of <15% but ≥2%), slightly hygroscopic (mass increase of <2% but ≥0.2%), or non-hygroscopic (mass increase of <0.2%).

## Br.N#Cc1ccc(N2CCN(Cc3ccc(COc4cccc5c4CN([C@H]4CCC(=O)NC4=O)C5=O)cc3)CC2)c(F)c1
[1]; slurried in water for ~24 h
  disproportionation in water: did not appear to disproportionate back to the free base
[1]; various water activities
  slurry in acetone/water mixtures (XRPD): no hydrate formation evident
[2]
  physical (XRPD) and chemical (HPLC) stability: both physically and chemically stable
[3]; FaSSIF
  Solubility: <LOQ
[3]; FeSSiF
  Solubility: 0.111 mg/mL
[3]; SGF with pepsin
  Solubility: 0.077 mg/mL
[3]; Water, t0
  Solubility: 0.301(t0), mg/ml
[3]; Water, t24
  Solubility: 0.212 mg/mL
[3]; pH 1 buffer HC1/NaC1
  Solubility: 0.018 mg/mL
[3]; pH 3 buffer (phosphate)
  Solubility: 0.032 mg/mL
[3]; pH 4 buffer (acetate)
  Solubility: 0.038 mg/mL
[3]; pH 5 buffer (acetate)
  Solubility: 0.004 mg/mL
[3]; solubility sample in FaSSIF
  Final pH: 6.40
[3]; solubility sample in FeSSiF
  Final pH: 5.16
[3]; solubility sample in SGF with pepsin
  Final pH: 1.15
[3]; solubility sample in Water
  Final pH: 4.53
[3]; solubility sample in pH 1 buffer HC1/NaC1
  Final pH: 0.95
[3]; solubility sample in pH 3 buffer (phosphate)
  Final pH: 3.11
[3]; solubility sample in pH 4 buffer (acetate)
  Final pH: 4.18
[3]; solubility sample in pH 5 buffer (acetate)
  Final pH: 5.08
[4]
  mother liquor concentration in buffers: < 0.05 mg/mL
[5]; DVS, class by mass gain at 85% r.h.
  hygroscopicity: slightly hygroscopic (slightly hygroscopic (mass increase of <2% but ≥0.2%))
[5]; after the DVS humidity cycle
  solid form after DVS cycle: remains as Form A
[5]; relative humidity from about 0% to about 95%
  DVS mass increase: about 0.7%
[5]; relative humidity from about 5% to about 90%
  DVS mass increase: about 0.7%
[5]; up to 90% RH
  DVS mass increase: ~0.69%
